One may read the IC50 as the concentration that inhibits the measured activity by half.

The structures appear in SMILES notation. Values after ≈ are worked out from the molar mass of the structure shown.

Data set [1] has as its system Bovine brain microtubule protein (MTP). The data set is described as follows: Tubulin polymerization inhibition assay (turbidimetry). It counts as biochemical. Particulars: 1.5 mg/mL MTP; IC50 calculated only if more than 50% inhibition at 20 µM; read-out: TPI IC50.
The subject of data set [2] is MCF-7 breast adenocarcinoma. Briefly: MTT cell antiproliferative assay, MCF-7. It counts as cell-based. Conditions: Homo sapiens, MCF7, 72 h. For orientation: Tetrazolium dyes change colour on reduction, which living cells bring about.
Data set [3] relates to HeLa cervix epithelioid carcinoma. The data set is described as follows: MTT cell antiproliferative assay, HeLa. It counts as cell-based. Conditions: Homo sapiens, 72 h.
Data set [4] can be described thus: Aqueous solubility determination (shake flask, UV). It counts as physicochemical. Conditions: phosphate buffer, pH 7, aqueous buffer, thermodynamic from solid, phosphate buffer pH 7.0, 48 h stirring, filtered, UV; read-out: Solub.
The subject of data set [5] is HT-29 colon adenocarcinoma. Briefly: MTT cell antiproliferative assay, HT-29 (without or with verapamil). Conditions: Homo sapiens, HT-29; MTT, 72 h. It counts as cell-based, human. How it is done: The in vitro antiproliferative activity of the synthesized compounds was evaluated by a colorimetric reaction, using the MTT reagent. They were tested against three different human tumor cell lines: HeLa cervix epithelioid carcinoma, HT-29 colon adenocarcinoma, and MCF-7 breast adenocarcinoma. […] Moving the alkylamino substituent from a para to a meta position with respect to the bridge results in potency reduction, except for the phenstatin analogue 1f. However, the introduction of a nitrogen atom to form 2-dimethylaminopyridine derivatives entails a loss of activity, both for phenstatin analogues (1b, 2b), while for isocombretastatins, it only involves a 2–3 times potency decrease (3b). For combretastatins, it implies an improvement in the cytotoxicity values down to tenths of nanomolar (8b). […] On the other hand, the best 2-dimethylaminopyridine was combretastatin 8b. All ammonium salts derivatives were not cytotoxic at micromolar concentrations.
As observed in Table 1, there are no significant changes in the IC50 values for most compounds, except for combretastatins 8a and 8i.
Acquired resistance to antitumor drugs is one of the more important problems of chemotherapy, also affecting tubulin-targeting drugs. In order to ascertain the impact of multidrug resistance phenotypes on the action of the compounds, we have measured the cell proliferation inhibitory activity of HT-29 cells in the presence of verapamil, a known P-glycoprotein 1/multidrug resistance protein 1 (MDR1) inhibitor at a concentration of 10 µM, not affecting cell proliferation. […] Except for the combretastatin analogues 8a and 8i, the affected drugs are all pyridine drugs.
HeLa (human cervical carcinoma) and MCF-7 (human breast carcinoma) cell lines were cultured in Dulbecco’s Modified Eagles Medium (DMEM) supplemented with 2 mM L-glutamine (Lonza-Cambrex, Karlskoga, Sweden), 10% (v/v) heat inactivated fetal bovine serum (HIFBS) (Lonza-Cambrex) and 100 μg/mL streptomycin-100 IU/mL penicillin (Lonza-Cambrex) at 37 °C in humidified 95% air and 5% CO2. HT-29 (human colon carcinoma) cells were cultured at 37 °C in complete RPMI 1640 medium containing 2 mM L-glutamine, 10% (v/v) HIFBS and 100 μg/mL streptomycin-100 IU/mL penicillin in humidified 95% air and 5% CO2 atmosphere.
The effect of the different compounds on the proliferation of human cell lines was determined by using the MTT (3-[4,5-dimethylthiazol-2-yl]-2,5-diphenyltetrazolium bromide) reagent (MTT Thiazolyl Blue Tetrazolium Bromide, Sigma-Aldrich, St. Louis, MO, USA) dissolved in PBS 5 mg/mL. Cell viability was evaluated seeding 100 µL of cells in exponential growth phase with appropriate cell line concentration (1.5 × 10^4 HeLa and MCF-7 cells/mL and 3 × 10^4 HT-29 cells/mL) in complete medium in 96-well plates at 37 °C and 5% CO2. After 24 h incubation to allow cells to attach to the plates the ligands were added at different concentrations from 10^−5 to 10^−9 M. The effect on the proliferation was evaluated 72 h post-treatment by adding the MTT reagent (10 µL/well) to a final concentration of 0.5 mg/mL and the plate was further incubated for another 3 h. After this period, the supernatant was removed, the MTT violet crystals formed on the bottom of each well were dissolved in DMSO (100 µL/well) and subsequently, the absorbance of the color complex was read at 570 nm using a multi-well plate reader. Compounds were dissolved in dimethyl sulfoxide (DMSO) and the final solvent concentrations never exceeded 0.5% (v/v). The control wells included treated cells with 0.5% (v/v) DMSO and the positive control. Measurements were performed in triplicate, and each experiment was repeated three times. […] Nonlinear curves fitting the experimental data were carried out for each compound.

Data set [6] has as its system rat primary pancreatic cells. Briefly: Toxicity against rat primary pancreatic cells (MTT). Particulars: for live cells with respect to the non-treated control (means ± S.E.M.): rat, 7 h, pH 7.4. Here is the method:
The toxicity of the compounds against rat primary pancreatic cells was evaluated by the MTT protocol (Table 2). […] Sodium taurocholate (NaTc) was also used at high concentrations as a model of acute pancreatitis in vitro.
Rat primary pancreatic cells were isolated as previously described. Afterwards, pancreatic cells were resuspended in Na-HEPES solution (pH 7.4) containing 14 mM glucose, 1% essential amino acid mixture, 1% (w/v) BSA, 0.01% (w/v) STI, 0.5 mM CaCl2 and incubated (5% CO2, at 37 °C) for 7 h in the absence (non-treated control) or the presence of compounds at different concentrations. After the treatment, cells were incubated (5% CO2, at 37 °C) with 0.5 mg/mL MTT for 2 h and the formazan crystals were solubilized with DMSO (v/v). The optical density was read at 570 nm with a reference wavelength of 630 nm. Non-treated cell viability was set as 100%.

On to `COc1cc(C(=O)c2cccc(N(C)C)c2)cc(OC)c1OC` [Compound 1f, (3-(Dimethylamino)phenyl)(3,4,5-trimethoxyphenyl)methanone], for which the IC50 in data set [1] was > 20 µM; in data set [2] it was 0.32 µM; in data set [3], 0.18 µM; in data set [5] it was 0.46 µM. Also, the solubility at 48 h in data set [4] worked out at 0.011 mg/mL (≈ 34.9 µM). Also, in data set [6], the “toxicity against primary pancreatic cultured cells” value (from here on “toxicity”) was “very low toxicity”. Also, the “live cells with respect to the non-treated control (means ± S.E.M.)” value in data set [6] (0.25 µM) was 106.59 ± 17.60%; in data set [6] (0.5 µM), 95.97 ± 10.55%.
Turning to `COc1cc(C(=O)c2ccnc(N3CCCC3)c2)cc(OC)c1OC` [Compound 1h, (2-(Pyrrolidin-1-yl)pyridin-4-yl)(3,4,5-trimethoxyphenyl)methanone], the IC50 is 9.1 µM in data set [1], 0.017 µM in data set [2], 0.018 µM in data set [3] and 0.071 µM in data set [5]. Besides, in data set [4], the solubility at 48 h worked out at 0.02 mg/mL (≈ 58.4 µM). In data set [6], the “toxicity” value is “very low toxicity”. The results for the “live cells with respect to the non-treated control (means ± S.E.M.)” value in data set [6] (0.25 µM) and in data set [6] (0.5 µM) were 103.84 ± 9.20% and 102.59 ± 14.73%, respectively.
For the compound `C=C(c1ccc(N(C)C)nc1)c1cc(OC)c(OC)c(OC)c1` [Compound 3b, N,N-Dimethyl-5-(1-(3,4,5-trimethoxyphenyl)vinyl)pyridin-2-amine], the IC50 in data set [1] is 35.9 µM; in data set [2] it was 0.081 µM; in data set [3], 0.15 µM; in data set [5] it was 0.277 µM. For the same compound, the solubility at 48 h in data set [4] was 0.0135 mg/mL (≈ 42.9 µM). The “toxicity” value in data set [6] is given as “very low toxicity”. Besides, the “live cells with respect to the non-treated control (means ± S.E.M.)” value in data set [6] (0.25 µM) amounted to 112.81 ± 19.30%; in data set [6] (0.5 µM) it was 94.06 ± 13.13%.
With `COc1cc(C=Cc2ccc(N(C)C)nc2)cc(OC)c1OC` [Compound 8b, N,N-dimethyl-5-(3,4,5-trimethoxystyryl)pyridin-2-amine], the IC50 in data set [1] was 5.1 µM; in data set [2], 0.063 µM; in data set [3], 0.057 µM; in data set [5], 0.078 µM. Besides, the solubility at 48 h in data set [4] was 0.044 mg/mL (≈ 140 µM). Further, in data set [6], the “toxicity” value is “very low toxicity”. The results for the “live cells with respect to the non-treated control (means ± S.E.M.)” value in data set [6] (0.25 µM) and in data set [6] (0.5 µM) were 94.31 ± 11.83% and 91.65 ± 13.88%, respectively.

The values are drawn from publication PMC6930638, “The Masked Polar Group Incorporation (MPGI) Strategy in Drug Design: Effects of Nitrogen Substitutions on Combretastatin and Isocombretastatin Tubulin Inhibitors” (Molecules, 2019).
